Legend:
Type in all cases: cell-based
T-47D cells = assay: Inhibition of cell proliferation in T-47D cells (CCK-8); conditions: 6 days treatment, CCK-8 cell viability
Summary of the method: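 Viability by CCK-8 after a 6-day, 37 °C/5% CO2 exposure of T-47D cells (3,000/well, RPMI-1640 + 10% FBS) to graded PROTAC concentrations. Inhibition rates gave the IC50.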

MCF-7 cells = assay: Inhibition of cell proliferation in MCF-7 cells (CCK-8); conditions: MCF-7 cell proliferation, 6 days treatment
Summary of the method: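 IC50 from CCK-8 viability-based inhibition after 6-day treatment of MCF-7 cells (800 cells/well, 10% FBS DMEM, 37 °C, 5% CO2) with serially varied compound concentrations.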

ERα [1] = target: T1, ERα (Homo sapiens, UniProt P03372); assay: ERα degradation in T-47D cells (Western blot); conditions: 4 hours
T1 sequence (P03372 1-595): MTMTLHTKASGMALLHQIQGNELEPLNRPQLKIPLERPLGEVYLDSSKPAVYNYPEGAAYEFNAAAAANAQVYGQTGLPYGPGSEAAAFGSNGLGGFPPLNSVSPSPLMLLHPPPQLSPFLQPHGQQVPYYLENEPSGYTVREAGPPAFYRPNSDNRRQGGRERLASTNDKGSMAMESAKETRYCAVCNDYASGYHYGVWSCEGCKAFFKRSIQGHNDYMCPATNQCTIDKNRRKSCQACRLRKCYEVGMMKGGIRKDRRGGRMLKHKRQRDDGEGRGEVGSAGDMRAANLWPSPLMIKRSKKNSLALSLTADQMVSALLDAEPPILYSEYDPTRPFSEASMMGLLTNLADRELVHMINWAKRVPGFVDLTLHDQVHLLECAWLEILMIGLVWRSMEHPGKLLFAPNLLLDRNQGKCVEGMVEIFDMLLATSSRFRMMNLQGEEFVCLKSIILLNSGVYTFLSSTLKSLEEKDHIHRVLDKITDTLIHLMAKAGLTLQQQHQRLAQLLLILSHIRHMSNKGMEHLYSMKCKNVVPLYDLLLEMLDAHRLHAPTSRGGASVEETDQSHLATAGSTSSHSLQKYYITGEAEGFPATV
Summary of the method: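 ERα was quantified by immunoblot of RIPA lysates (20 µg total protein), normalised to an internal reference band, and degradation was expressed against control. Lysates came from T-47D cells plated at 3×10^5 cells/well and dosed 4 hours at 37°C with compound at 0.15-1000 nM final concentration.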

ERα [2] = target: T1, ERα; assay: ERα degradation in MCF-7 cells (Western blot); set-up: host or cells: MCF-7; conditions: 4 hours
Summary of the method: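 ERα degradation was quantified by immunoblot densitometry, ERα signal divided by internal-reference signal and compared with control. Compounds were applied to MCF-7 cells for 4 hours at final concentrations of 0.15–1000 nM, with 20 µg total protein loaded per lane.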

| IC50 (T-47D cells) [nM] | IC50 (MCF-7 cells) [nM] | SMILES | IC50 (T-47D cells; Homo sapiens, T47D, 144 h) [nM] | IC50 (MCF-7 cells; Homo sapiens, MCF7, 144 h) [nM] | Degradation rate of ERα in T-47D cells (%) (ERα [1]; 1nM) | Degradation rate of ERα in T-47D cells (%) (ERα [1]; 10nM) | Degradation rate of ERα in MCF-7 cells (%) (ERα [2]; 1nM) | Degradation rate of ERα in MCF-7 cells (%) (ERα [2]; 10nM) |
| --- | --- | --- | --- | --- | --- | --- | --- | --- |
|  |  | CN(c1ccc2c(c1)COC[C@H]1CN(CC3CCC(OC4CCN(c5ccc([C@@H]6c7ccc(O)cc7CC[C@@H]6c6ccccc6)cc5)CC4)CC3)CCN21)C1CCC(=O)NC1=O (stereo partly drawn) [ER-P-52, 3-(((R)-3-((4-((1-(4-((1R,2S)-6-hydroxy-2-phenyl-1,2,3,4-tetrahydronaphthalen-1-yl)phenyl)piperidin-4-yl)oxy)cyclohexyl)methyl)-1,2,3,4,4a,5-hexahydro-7H-benzo[e]pyrazino[2,1-c][1,4]oxazepin-9-yl)(methyl)amino)piperidine-2,6-dione] | 248 | 854 | 6 | 6 | -2 | 7 |
| 252 | 1310 | CN(c1ccc2c(c1)COC[C@H]1CN(CC3CCC(OC4CCN(c5ccc([C@@H]6c7ccc(O)cc7CC[C@@H]6c6ccccc6)cc5)CC4)CC3)CCN21)C1CCC(=O)NC1=O (stereo partly drawn) [ER-P-53, 3-(((R)-3-((4-((1-(4-((1R,2S)-6-hydroxy-2-phenyl-1,2,3,4-tetrahydronaphthalen-1-yl)phenyl)piperidin-4-yl)oxy)cyclohexyl)methyl)-1,2,3,4,4a,5-hexahydro-7H-benzo[e]pyrazino[2,1-c][1,4]oxazepin-9-yl)(methyl)amino)piperidine-2,6-dione] |  |  | 18 | 33 | 10 | 21 |
|  |  | Cn1c(=O)n(C2CCC(=O)NC2=O)c2ccc3c(c21)OCC31CCN(C[C@H]2CC[C@@H](OC3CCN(c4ccc([C@@H]5c6ccc(O)cc6CC[C@@H]5c5ccccc5)cc4)CC3)CC2)CC1 (stereo partly drawn) [ER-P-54, 3-(1'-(((1S,4S)-4-((1-(4-((1R,2S)-6-hydroxy-2-phenyl-1,2,3,4-tetrahydronaphthalen-1-yl)phenyl)piperidin-4-yl)oxy)cyclohexyl)methyl)-1-methyl-2-oxo-1,2-dihydro-3H,7H-spiro[benzofuro[6,7-d]imidazole-6,4'-piperidin]-3-yl)piperidine-2,6-dione] | 0.15 | 1020 | 67 | 81 | 50 | 76 |
|  |  | Cn1c(=O)n(C2CCC(=O)NC2=O)c2cc3c(cc21)C1(CCN(C[C@H]2CC[C@@H](OC4CCN(c5ccc([C@@H]6c7ccc(O)cc7CC[C@@H]6c6ccccc6)cc5)CC4)CC2)CC1)CO3 (stereo partly drawn) [ER-P-55, 3-(1'-(((1S,4S)-4-((1-(4-((1R,2S)-6-hydroxy-2-phenyl-1,2,3,4-tetrahydronaphthalen-1-yl)phenyl)piperidin-4-yl)oxy)cyclohexyl)methyl)-1-methyl-2-oxo-1,2-dihydro-3H,6H-spiro[benzofuro[5,6-d]imidazole-7,4'-piperidin]-3-yl)piperidine-2,6-dione] | 0.18 | 113 | 62 | 87 | 35 | 69 |
|  |  | O=C1CCC(n2c(=O)n3c4c(cccc42)N(C[C@H]2CC[C@@H](OC4CCN(c5ccc([C@@H]6c7ccc(O)cc7CC[C@@H]6c6ccccc6)cc5)CC4)CC2)CC3)C(=O)N1 (stereo partly drawn) [ER-P-56, 3-(6-(((1S,4s)-4-((1-(4-((1R,2S)-6-hydroxy-2-phenyl-1,2,3,4-tetrahydronaphthalen-1-yl)phenyl)piperidin-4-yl)oxy)cyclohexyl)methyl)-2-oxo-5,6-dihydro-4H-imidazo[1,5,4-de]quinoxalin-1(2H)-yl)piperidine-2,6-dione] | 42.2 | 2460 | 22 | 24 | -4 | 16 |
|  |  | O=C1CCC(N2Cc3c(ccc4c3OCC43CCC4(CCN(C5CCC6(CC5)CCN(c5ccc([C@@H]7c8ccc(O)cc8CC[C@@H]7c7ccccc7)cc5)CC6)CC4)CC3)C2=O)C(=O)N1 (stereo partly drawn) [ER-P-57] | 3.19 | 12.7 | 12 | 68 | 3 | 62 |
|  |  | O=C1CCC(N2Cc3c(ccc4c3OCC43CCC4(CCN(C5CCN(c6ccc([C@@H]7c8ccc(O)cc8CC[C@@H]7c7ccccc7)cc6)CC5)CC4)CC3)C2=O)C(=O)N1 (stereo partly drawn) [ER-P-58] | 2.19 | 12.8 | 35 | 71 | 42 | 69 |
|  |  | Cn1c(=O)n(C2CCC(=O)NC2=O)c2cc3c(cc21)C1(CCN(C2CCC4(CC2)CN(c2ccc([C@@H]5c6ccc(O)cc6CC[C@@H]5c5ccccc5)cc2)C4)CC1)CO3 (stereo partly drawn) [ER-P-59] | 0.96 | 0.875 | 40 | 63 | 14 | 18 |
|  |  | Cn1c(=O)n(C2CCC(=O)NC2=O)c2cc3c(cc21)C1(CCN(C2CCC4(CC2)CCN(c2ccc([C@@H]5c6ccc(O)cc6CC[C@@H]5c5ccccc5)cc2)CC4)CC1)CO3 (stereo partly drawn) [ER-P-60] | 1.41 | 0.362 | 21 | 51 | 14 | 36 |
|  |  | Cn1c(=O)n(C2CCC(=O)NC2=O)c2cc3c(cc21)C1(CCN(CC2CCC4(CC2)CN(c2ccc([C@@H]5c6ccc(O)cc6CC[C@@H]5c5ccccc5)cc2)C4)CC1)CO3 (stereo partly drawn) [ER-P-61] | 1.12 | 28.8 | 22 | 43 | 9 | 18 |
|  |  | Cn1c(=O)n(C2CCC(=O)NC2=O)c2cc3c(cc21)C1(CCN(CC2CCC4(CC2)CCN(c2ccc([C@@H]5c6ccc(O)cc6CC[C@@H]5c5ccccc5)cc2)CC4)CC1)CO3 (stereo partly drawn) [ER-P-62] | 2.64 | 183 | 13 | 52 | 14 | 39 |
|  |  | Cn1c(=O)n(C2CCC(=O)NC2=O)c2ccc3c(c21)OCC31CCN(CC2CCN(C(=O)C3CCN(c4ccc([C@@H]5c6ccc(O)cc6CC[C@@H]5c5ccccc5)cc4)CC3)CC2)CC1 (stereo partly drawn) [ER-P-63, 3-(1'-((1-(1-(4-((1R,2S)-6-hydroxy-2-phenyl-1,2,3,4-tetrahydronaphthalen-1-yl)phenyl)piperidine-4-carbonyl)piperidin-4-yl)methyl)-1-methyl-2-oxo-1,2-dihydro-3H,7H-spiro[benzofuro[6,7-d]imidazole-6,4'-piperidin]-3-yl)piperidine-2,6-dione] | 1.15 | 3750 | 56 | 65 | 53 | 56 |
|  |  | CN(C(=O)CN1CCC2(CC1)COc1c2ccc2c1n(C)c(=O)n2C1CCC(=O)NC1=O)C1CCC2(CC1)CN(c1ccc([C@@H]3c4ccc(O)cc4CC[C@@H]3c3ccccc3)cc1)C2 (stereo partly drawn) [ER-P-64, 2-(3-(2,6-dioxopiperidin-3-yl)-1-methyl-2-oxo-2,3-dihydro-1H,7H-spiro[benzofuro[6,7-d]imidazole-6,4'-piperidin]-1'-yl)-N-(2-(4-((1R,2S)-6-hydroxy-2-phenyl-1,2,3,4-tetrahydronaphthalen-1-yl)phenyl)-2-azaspiro[3.5]nonan-7-yl)-N-methylacetamide] | 1.5 | 231 | 56 | 80 | 46 | 57 |
